{"source": "patent US11771676B2", "about": "“Method for preparing high-load oral paclitaxel capsule for slow release in colon” (Jiangnan University, priority 2022, dated 2023)", "experiment": "Determination of stability in upper digestive tract and simulated colonic release (SGF, SIF, SCF; dialysis bag, UV 230 nm)", "type": "physicochemical", "details": "cumulative release after SGF and SIF", "protocol": "6. Determination of Stability in Upper Digestive Tract and Simulated Colonic Release\nA simulated gastric fluid (SGF, a pH of 1.2) consists of 2.95 g/L of sodium chloride and 8 ml/L of hydrochloric acid. A paclitaxel capsule (1 mg/ml of paclitaxel (dry weight)) is added to the SGF containing 3.2 g/L of pepsin and placed in a sealed dialysis bag (8,000-14,000 Da), then the dialysis bag is soaked in the SGF containing 3% (v/w) Tween-20 and stirred at 100 rpm at 37±0.5° C., and 2 ml of a release medium is withdrawn at 30 min, 60 min, 90 min, and 120 min respectively. An equal volume of the fresh SGF is added to maintain a volume after each sampling.\nA pH value of the SGF system is adjusted to 6.8 with disodium hydrogen phosphate and a fresh porcine trypsin solution at 30 mg/mL is added into the dialysis bag to obtain a simulated intestinal fluid (SIF). 2 ml of a release medium is taken out at 30 min, 60 min, 90 min, and 120 min respectively and a concentration of paclitaxel is determined. An equal volume of the fresh release medium is added to maintain a volume after each sampling. […]\nThe concentration of paclitaxel is measured with an ultraviolet spectrophotometer at a wavelength of 230 nm."}
{"smiles": "CC(=O)O[C@H]1C(=O)[C@@]2(C)[C@H]([C@H](OC(=O)c3ccccc3)[C@]3(O)C[C@H](OC(=O)[C@H](O)[C@@H](NC(=O)c4ccccc4)c4ccccc4)C(C)=C1C3(C)C)[C@]1(OC(C)=O)CO[C@@H]1C[C@@H]2O", "note": "[raw paclitaxel, paclitaxel]", "values": [{"measurement": "release amount (dissolution rate) in a stomach-small intestine", "result": "about 25%"}]}
